Results: ChEMBL document CHEMBL4840345, “Penispidins A-C, Aromatic Sesquiterpenoids from Penicillium virgatum and Their Inhibitory Effects on Hepatic Lipid Accumulation” (J Nat Prod, 2021)
Activity calls are given as the source filed them. The rule behind the calls is not given here.

Assays:
HepG2 [1] = assay: Cytotoxicity against human HepG2 cells assessed as cell viability at 10 uM measured after 24 hrs by MTT assay; assay type: cell-based; conditions: hepg2, 24 h
HepG2 [2] = assay: Hypolipidemic activity in human HepG2 cells assessed as inhibition of oleic acid-BSA induced triglyceride accumulation at 10 uM after 24 hrs; assay type: functional, cell-based
HepG2 [3] = assay: Hypolipidemic activity in human HepG2 cells assessed as inhibition of oleic acid-BSA induced intracellular lipid accumulation at 10 uM after 24 hrs by Oil Red O staining based microscopic assay; assay type: functional, cell-based

| Structure (SMILES) | Activity (HepG2 [1]) | Activity (HepG2 [2]) | inhibition (HepG2 [3]) |
| --- | --- | --- | --- |
| COC(=O)c1ccc2c(c1)O[C@]1(C)CCC[C@@]2(C)C1 | Non-Toxic | – | – |
| C[C@@]12CCC[C@@](C)(C1)c1ccc(C(=O)O)cc1O2 | Non-Toxic | – | – |
| C[C@]12CCC[C@](C)(C1)c1ccc(C(=O)O)cc1O2 | Non-Toxic | – | – |
| COC(=O)c1ccc2c(c1)OC(C)(C)[C@@H]1CC[C@]21C | Non-Toxic | Active | Active |
